This passage reports TGI and GI50 results from PubChem BioAssay (NCI).

Where “and” joins values, the source holds several entries; their conditions need not be identical. Equal entries are not always repeated.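 Interpolation was linear, between the two tested concentrations surrounding the appropriate level; five concentrations were tested over 48 hours in 96-well plates. GI50: concentration for 50% inhibition of growth. Definition used: TGI = concentration required for complete inhibition of growth.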

The first experiment relates to HT29 colon. Put plainly: DTP human tumour cell line panel, 48 h.
`O=c1[nH]c2nc3ccccc3c(=O)n2/c1=C/c1ccc(O)cc1`: the TGI was found to be 72 µM.

`CC[C@@H]1CC[C@@H]2[C@H](CC[C@]3(C)[C@@H](O)CC[C@@H]23)[C@H]1C(=O)O` yielded a TGI greater than 100 µM.

Consider `Nc1nc(Cl)cc(NCC2(CO)CC(CCc3ccccc3)C2)n1` (stereo not given), for which the TGI is greater than 100 µM.

In the case of `O=c1c2ccccc2[nH]c(=S)n1-c1ccc(N=Nc2cccc3c(O)cccc23)cc1`, the TGI is greater than 100 µM.

Turning to `N#C/C(=C\NC(=S)Nc1ccc(S(=O)(=O)Nc2ccccn2)cc1)C(N)=O`, the TGI was greater than 100 µM.

In the case of `CC(=O)NC1C(OCc2ccccc2)OC(CO)C(O)C1OCC(=O)N[C@@H](C)C(=O)N[C@H](CCC(=O)NCCNCCNc1c2ccccc2nc2cccc([N+](=O)[O-])c12)C(N)=O` (stereo not given in full), the TGI was found to be 72.3 µM.

Molecule `c1cc2nnc1SCCSCCSc1ccc(nn1)SCCSCCS2` displayed a TGI greater than 100 µM.

As to `COc1ccc(-c2c(C#N)c(S)n(C3OC(COC(C)=O)C(OC(C)=O)C(OC(C)=O)C3OC(C)=O)c(=O)c2C#N)cc1` (stereo not given), the TGI is greater than 100 µM.

The next experiment has as its system OVCAR-4 ovarian. Description: DTP human tumour cell line panel, 48 h.
`CCC(=O)C(c1ccccc1)c1ccccn1` (stereo not given): the TGI was greater than 100 µM.

Consider `CCCN=C1CC(C)Nc2ccccc2N1` (stereo not given), for which the TGI was greater than 100 µM.

As for `Cc1ccc(-c2cc(N)n(-c3nc4c([nH]3)c(=O)n(C)c(=O)n4C)n2)cc1`, the TGI was greater than 100 µM.

Take `Cc1sc2nc3n(c(=O)c2c1C)N=CN(c1ccccc1)C3`: the TGI is greater than 100 µM.

`COC1O[C@H]2CCN(C(=O)OCc3ccccc3)[C@H]2[C@H]1OCc1ccccc1` (stereo not given in full) yielded a TGI greater than 100 µM.

As to `COc1ccc(N2C(=O)C3c4[nH]c5ccc([N+](=O)[O-])cc5c4C4CCC(C(C)(C)C)CC4C3C2=O)cc1` (stereo not given), the TGI is greater than 100 µM.

In turn, `O=C(O)c1ccc(NC(c2ccccc2)c2ccc3cccnc3c2O)cc1` (stereo not given) yielded a TGI of 36.6 µM. In other words, the double-digit micromolar range.

In the case of `COc1ccc(-c2c(C#N)c(N)n(C3OC(CO)C(O)C(O)C3O)c(=S)c2C#N)cc1` (stereo not given), the TGI is greater than 100 µM.

Molecule `CCOC(=O)c1sc2nc(SC)nc3c2c1N=CN3c1ccc(Br)cc1` returned a TGI greater than 100 µM.

Molecule `Cc1c(Cl)cccc1NC(=O)C(=O)C1C(=O)CC(C)(C)CC1=O` had a TGI greater than 100 µM.

For `O=c1[nH]c2nc3ccccc3c(=O)n2/c1=C/c1ccc(O)cc1`, the TGI is greater than 100 µM.

`CC[C@@H]1CC[C@@H]2[C@H](CC[C@]3(C)[C@@H](O)CC[C@@H]23)[C@H]1C(=O)O` came in with a TGI greater than 100 µM.

On to `Nc1nc(Cl)cc(NCC2(CO)CC(CCc3ccccc3)C2)n1` (stereo not given), for which the TGI is greater than 100 µM.

Consider `O=c1c2ccccc2[nH]c(=S)n1-c1ccc(N=Nc2cccc3c(O)cccc23)cc1`, for which the TGI was greater than 100 µM.

Regarding `N#C/C(=C\NC(=S)Nc1ccc(S(=O)(=O)Nc2ccccn2)cc1)C(N)=O`, the TGI is greater than 100 µM.

Take `CC(=O)NC1C(OCc2ccccc2)OC(CO)C(O)C1OCC(=O)N[C@@H](C)C(=O)N[C@H](CCC(=O)NCCNCCNc1c2ccccc2nc2cccc([N+](=O)[O-])c12)C(N)=O` (stereo not given in full): the TGI amounted to 40.2 µM.

Regarding `c1cc2nnc1SCCSCCSc1ccc(nn1)SCCSCCS2`, the TGI was greater than 100 µM.

For `COc1ccc(-c2c(C#N)c(S)n(C3OC(COC(C)=O)C(OC(C)=O)C(OC(C)=O)C3OC(C)=O)c(=O)c2C#N)cc1` (stereo not given), the TGI is > 100 µM and 77.6 µM.

The test system of the next experiment is SF-295 CNS. Put plainly: DTP human tumour cell line panel, 48 h.
Consider `CCC(=O)C(c1ccccc1)c1ccccn1` (stereo not given), for which the TGI was greater than 100 µM.

Turning to `CCCN=C1CC(C)Nc2ccccc2N1` (stereo not given), the TGI was greater than 100 µM.

Molecule `Cc1ccc(-c2cc(N)n(-c3nc4c([nH]3)c(=O)n(C)c(=O)n4C)n2)cc1` yielded a TGI of 24.9 µM. This lies in the double-digit micromolar range.

As for `Cc1sc2nc3n(c(=O)c2c1C)N=CN(c1ccccc1)C3`, the TGI was greater than 100 µM.

For `COC1O[C@H]2CCN(C(=O)OCc3ccccc3)[C@H]2[C@H]1OCc1ccccc1` (stereo not given in full), the TGI was greater than 100 µM.

Take `COc1ccc(N2C(=O)C3c4[nH]c5ccc([N+](=O)[O-])cc5c4C4CCC(C(C)(C)C)CC4C3C2=O)cc1` (stereo not given): the TGI was greater than 100 µM.

Regarding `O=C(O)c1ccc(NC(c2ccccc2)c2ccc3cccnc3c2O)cc1` (stereo not given), the TGI was greater than 100 µM.

Regarding `COc1ccc(-c2c(C#N)c(N)n(C3OC(CO)C(O)C(O)C3O)c(=S)c2C#N)cc1` (stereo not given), the GI50 is 64.7 µM and 22.3 µM; the TGI is greater than 100 µM.

`CCOC(=O)c1sc2nc(SC)nc3c2c1N=CN3c1ccc(Br)cc1` registered a TGI greater than 100 µM.

For `Cc1c(Cl)cccc1NC(=O)C(=O)C1C(=O)CC(C)(C)CC1=O`, the TGI is greater than 100 µM.

For the molecule `O=c1[nH]c2nc3ccccc3c(=O)n2/c1=C/c1ccc(O)cc1`, the TGI is greater than 100 µM.

For the molecule `CC[C@@H]1CC[C@@H]2[C@H](CC[C@]3(C)[C@@H](O)CC[C@@H]23)[C@H]1C(=O)O`, the TGI is greater than 100 µM.

As to `Nc1nc(Cl)cc(NCC2(CO)CC(CCc3ccccc3)C2)n1` (stereo not given), the TGI was greater than 100 µM.

The molecule `O=c1c2ccccc2[nH]c(=S)n1-c1ccc(N=Nc2cccc3c(O)cccc23)cc1` returned a TGI greater than 100 µM.

`N#C/C(=C\NC(=S)Nc1ccc(S(=O)(=O)Nc2ccccn2)cc1)C(N)=O` came in with a TGI greater than 100 µM.

Molecule `CC(=O)NC1C(OCc2ccccc2)OC(CO)C(O)C1OCC(=O)N[C@@H](C)C(=O)N[C@H](CCC(=O)NCCNCCNc1c2ccccc2nc2cccc([N+](=O)[O-])c12)C(N)=O` (stereo not given in full) returned a TGI greater than 100 µM.

`c1cc2nnc1SCCSCCSc1ccc(nn1)SCCSCCS2` came in with a TGI greater than 100 µM.

On to `COc1ccc(-c2c(C#N)c(S)n(C3OC(COC(C)=O)C(OC(C)=O)C(OC(C)=O)C3OC(C)=O)c(=O)c2C#N)cc1` (stereo not given), for which the GI50 was 36.1 µM and 87.1 µM; the TGI is greater than 100 µM.

The subject of another experiment is TK-10 renal. Put plainly: DTP human tumour cell line panel, 48 h.
Molecule `CCC(=O)C(c1ccccc1)c1ccccn1` (stereo not given) came in with a TGI greater than 100 µM.

`CCCN=C1CC(C)Nc2ccccc2N1` (stereo not given) returned a TGI greater than 100 µM.

`Cc1ccc(-c2cc(N)n(-c3nc4c([nH]3)c(=O)n(C)c(=O)n4C)n2)cc1` registered a TGI of 26.4 µM.

As to `Cc1sc2nc3n(c(=O)c2c1C)N=CN(c1ccccc1)C3`, the TGI is greater than 100 µM.

A word on the TGI: it is the concentration giving total growth inhibition. A lower TGI goes with more potent growth arrest. For orientation: GI50 means the concentration that inhibits growth by half.
